The text below walks through data of patent US20130072448A1, “Drug Combination Comprising A Glycolysis Inhibitor And A Tyrosine Kinase Inhibitor” (URIFER LTD., priority 2011, published 2013).

In one data set the target is T1, Fer (Homo sapiens, UniProt P16591).
T1 construct: endogenous in cells; host or cells: HCT116 colon carcinoma cells
The data set is described as follows: in-vivo Fer activity assay: auto-phosphorylation of Fer in HCT116 CC cells (IP, anti-phosphotyrosine western blot). Particulars: serum deprived 24 h with 2 μM 0260, 20 mM H2O2 15 min before harvest. It is filed as cell-based. As to the method: HCT116 CC cells were deprived of serum for 24 h in the presence of 2 μM 0260 or 0.5% DMSO (the solvent). 15 min before harvest cells were treated with 20 mM H2O2— for activation and auto-phosphorylation of Fer. Protein lysates were prepared from cells: starved in the presence of DMSO and treated with H2O2 (1), starved in the presence of 0260 and treated with H2O2 (2), and from untreated cells (3). Fer was immuno-precipitated, resolved in SDS-PAGE and reacted with anti-phosphotyrosine (pY— upper panel) or anti-Fer antibodies (lower panel) in a western blot analysis.
After extraction of cellular proteins, a protein sample of 750-1000 μg was diluted 3fold with TGET buffer (20 mM Tris-HCl (Ph7.5), 1 mM EDTA, 0.1% Triton X100 and 10% Glycerol) with […] and protease inhibitors and incubated with the indicated antibody at a dilution of 1:100 overnight at 4° C. with shaking. At the end of the incubation, 25 μl Protein A/G suspension was added bound to agarose beads. The mixture was shaken for another 90 min at 4° C. The immune complex precipitate was obtained after centrifugation for 20 min at maximum speed and then washed three times in extraction buffer: twice with buffer TGET NaCl 150 mM and once with TGET NaCl 75 mM. The precipitate was suspended in 2× loading buffer. […]
Background: A western blot detects proteins with antibodies after separation by electrophoresis.

Data set [1] has as its system human foreskin cells (FS11). The data set is described as follows: Dead cells fraction by FACS (PI), normal FS11 cells. It is filed as cell-based. The note with it: up to 1000 μM DG and 1 μM compound 0260, alone or in combinations. As to the method: (§1) Florescence assisted cell sorting (FACS) was performed as described in Pasder O, et al. [Pasder O, et al. Oncogene 2006; 25(30):4194-206]. Cells were rinsed twice with cold PBS, and then harvested by treatment with trypsin. Suspended cells were washed twice in 10 ml cold PBS and centrifuged at 500 g for 5 min. In cell cycle analyses, the pellet was resuspended in 200 μl cold PBS and cells were stained in the dark with 200 μl propidium iodide (PI) solution (20 mM Tris, pH 8, 1 mM NaCl, 0.1% (v/v) NP-40, 1.4 mg/ml RNase A, 0.05 mg/ml PI) for 30 min at […]. In experiments to determine the fraction of dead cells in a population of cells, the detergent NP-40 was omitted. The total cellular DNA content was determined using a Becton Dickinson flow cytometer (FACSCalibur). The data were analyzed using Cell Quest Pro software (Becton Dickinson) and ModFit LT software.
(§2) To study the effect of various combinations of Fer and glycolysis inhibitors on cell cycle progression, various concentrations of 0260 and DG alone and in combination were tested in Hep3B liver cancer cells and on human foreskin cells (FS11) as a non-cancer controls.

A further data set relates to Hep3B liver cancer cells. The data set is described as follows: Dead cells fraction by FACS (PI), Hep3B. It is filed as cell-based, human. The note with it: compounds alone or in combination. As to the method: as §1, §2
(In general: Flow cytometry measures light scatter and fluorescence of single cells or particles in a stream.)

For data set [2], the system named is HCT116 colon cancer cells. In words: Dead cells fraction by FACS (PI), HCT116. Particulars: compounds alone or in combination. The class given is cell-based. As to the method:
as §1

T1 sequence (P16591 whole entry): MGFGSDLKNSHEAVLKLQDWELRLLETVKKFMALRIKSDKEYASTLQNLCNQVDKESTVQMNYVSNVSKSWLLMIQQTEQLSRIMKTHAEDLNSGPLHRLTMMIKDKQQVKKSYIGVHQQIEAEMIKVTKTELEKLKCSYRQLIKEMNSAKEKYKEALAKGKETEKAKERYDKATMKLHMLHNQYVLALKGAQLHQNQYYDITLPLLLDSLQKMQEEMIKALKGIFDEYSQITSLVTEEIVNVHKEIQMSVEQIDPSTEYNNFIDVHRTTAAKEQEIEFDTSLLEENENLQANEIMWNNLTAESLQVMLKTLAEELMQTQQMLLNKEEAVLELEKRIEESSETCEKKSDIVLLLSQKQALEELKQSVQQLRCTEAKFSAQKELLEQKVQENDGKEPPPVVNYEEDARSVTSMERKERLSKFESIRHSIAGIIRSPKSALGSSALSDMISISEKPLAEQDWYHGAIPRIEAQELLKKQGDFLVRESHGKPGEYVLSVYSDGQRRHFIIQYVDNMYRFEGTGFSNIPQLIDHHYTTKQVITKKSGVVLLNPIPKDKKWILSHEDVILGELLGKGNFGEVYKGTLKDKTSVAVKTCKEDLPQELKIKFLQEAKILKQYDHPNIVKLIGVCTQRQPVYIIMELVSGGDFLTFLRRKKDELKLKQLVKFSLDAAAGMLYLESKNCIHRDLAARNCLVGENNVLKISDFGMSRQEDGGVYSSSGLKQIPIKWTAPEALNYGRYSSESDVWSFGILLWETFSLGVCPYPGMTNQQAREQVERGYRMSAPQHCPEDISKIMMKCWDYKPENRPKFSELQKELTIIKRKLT

In the case of `CC(C)c1ccc(-c2cn3nc(N4CCC(CN5CCN(C)CC5)CC4)sc3n2)cc1` [compound 0260, 6-(4-isopropyl-phenyl)-2-{4-[(4-methyl-piperazin-1-yl)methyl]piperidin-1-yl}imidazo[2,1-b][1,3,4]thiadiazole], the “inhibition of Fer auto-phosphorylation” value against Fer was “efficient inhibition”. Also, the values for the dead cells fraction entry (in data set [1]; in the data set with Hep3B liver cancer cells; in data set [2]) were “only minor effects”, “only minor effect” and “only minor effect”, respectively.

As to `O=CC[C@@H](O)[C@H](O)[C@H](O)CO` [DG, 2-deoxyglucose, reference compound], the dead cells fraction entry in data set [1] is recorded as “only minor effects”; in the data set on Hep3B liver cancer cells it was “only minor effect”; in data set [2], “only minor effect”.
